# According to paper PMC4891657, “Orexin 2 Receptor Antagonism is Sufficient to Promote NREM and REM Sleep from Mouse to Man” (Scientific Reports, 2016):
# Entries after “also recorded” stand apart in the source; their conditions may differ. Read-outs that look alike come from different tables or passages of the source.
# What was measured:
# sleep/wake stages [1] = assay: Polysomnography in telemetered Sprague-Dawley rats; type: in vivo, rat
# Method: MK-1064 promoted both REM and NREM sleep in telemetered rats in a time-of-day-dependent manner.
# Figure 2 MK-1064 dose-dependently promotes both NREM and REM sleep during the active phase in rats. Mean time in active wake, light sleep (LS), SWS, and REM sleep in adult Sprague-Dawley rats monitored for 2 hours post-dose. MK-1064 (5, 10, or 20 mg/kg) or vehicle (20% vitamin E TPGS, orally) was administered in a balanced crossover design such that each animal received drug and vehicle treatments (7 consecutive days). […] Mean within-subject change relative to vehicle ± SEM is shown (*, ***p < 0.05 < 0.001, respectively; one sample t-test for repeated measures compared with vehicle).
# The mean time spent in sleep stages was determined in radio-telemetry–implanted mice, rats, and dogs, as described previously. Continuous PSG recordings were performed following oral MK-1064 or vehicle (20% vitamin E d-alpha tocopheryl polyethylene glycol 1000 succinate [TPGS]) administration. In rodents, electrocorticogram (ECoG) and electromyogram (EMG) and locomotor activity measured via radio-telemetry were scored in 10 second epochs to define light sleep (LS; no movement, moderate EMG tone, theta with <50% delta ECoG [0.5–4 Hz]), slow wave sleep (SWS; no gross movement, reduced EMG, >50% delta ECoG) and rapid eye movement sleep (REM; no movement, little to no EMG activity, primarily theta ECoG [4–7 Hz] activity)[42]. Scored data were then grouped and compiled according to condition (vehicle or compound treatment) averaged over the indicated times (30 minutes or 2 hours) and analyzed statistically as previously described[1][14][40][42] (see below). Canine sleep was scored similarly except that electrooculogram (EOG) recordings were used to define and distinguish REM sleep (high frequency EOG, no locomotor, little to no EMG activity, theta ECoG) from non-REM I (NREM I; little to no EOG activity, no movement, moderate EMG tone, <50% delta ECoG) and NREM II sleep (little to no EOG activity, no gross movement, reduced EMG, >50% delta ECoG), and analyzed as described previously.
# In adult male Sprague-Dawley rats (600 g, Taconic Farms, Germantown, NY), MK-1064 (5, 10, or 20 mg/kg) or vehicle was administered orally in a balanced crossover design such that each subject received drug and vehicle treatments (7 consecutive days). […] Data were analyzed using within-subject ANOVA to determine main effects and one sample t-test to compare with vehicle.
# sleep/wake stages [2] = assay: Polysomnography in telemetered dogs; type: in vivo, dog
# Method: The mean time spent in sleep stages was determined in radio-telemetry–implanted mice, rats, and dogs, as described previously[1][14][40][42]. Continuous PSG recordings were performed following oral MK-1064 or vehicle (20% vitamin E d-alpha tocopheryl polyethylene glycol 1000 succinate [TPGS]) administration. In rodents, electrocorticogram (ECoG) and electromyogram (EMG) and locomotor activity measured via radio-telemetry were scored in 10 second epochs to define light sleep (LS; no movement, moderate EMG tone, theta with <50% delta ECoG [0.5–4 Hz]), slow wave sleep (SWS; no gross movement, reduced EMG, >50% delta ECoG) and rapid eye movement sleep (REM; no movement, little to no EMG activity, primarily theta ECoG [4–7 Hz] activity)[42]. Scored data were then grouped and compiled according to condition (vehicle or compound treatment) averaged over the indicated times (30 minutes or 2 hours) and analyzed statistically as previously described[1][14][40][42] […]
# Mean times in active wake, NREM I, NREM II, and REM sleep were monitored continuously. Vehicle and compound treatment conditions were consolidated into 24-hour periods for each animal, and the mean time spent in each sleep stage for the 2 hours following treatment was determined and significance determined by t-test.
# cataplexy = assay: Food-elicited cataplexy test (FECT); type: in vivo, dog; conditions: dogs, 20 mg/kg, 1 hour after administration
# Method: A standard measure for quantifying narcolepsy with cataplexy in dogs is the food-elicited cataplexy test (FECT).
# The FECT was performed essentially as described previously. After a 2-day vehicle run-in period, female dogs (n = 8; Marshall Farms) were treated with MK-1064 (20 mg/kg) or vehicle in a 1-day vehicle x 2-day drug crossover design. Daytime FECTs[32][43][44] with simultaneous video and electrocorticography (ECoG), electromyography (EMG), and electrooculography (EOG) recordings were conducted 1 hour post-dose. Following release into the test room, dogs were remotely monitored while consuming 10 evenly spaced, approximately 1-inch[2] balls of wet dog food (Pedigree® chunk beef). Video and ECoG/EOG/EMG recordings were evaluated for any signs of cataplexy (e.g., collapse, EMG attenuation, sudden-onset REM sleep; see Kushida et al.[43]) and the time needed to consume all 10 balls of food.
# Dog plasma free fraction = type: in vitro ADME
# [3] = Pharmacokinetics, ascending single-dose study in healthy male subjects; type: in vivo; conditions: human, plasma, single oral doses 5 to 250 mg; for half-life: male, po
# Method: In the ascending single-dose study, doses of MK-1064 ranging from 5 to 250 mg corresponded with dose-dependent changes in measured plasma levels (Fig. 6a). […] The greatest effects were observed between 1 and 4 hours, and effects greatly diminished 8 hours following treatment, consistent with the time course of plasma concentrations of MK-1064.
# MK-1064 safety, PK and PD were evaluated in a randomised, double-blind, placebo-controlled, alternating panel, single oral ascending-dose first-in-human study (see Fig. 5). Participants were unmedicated healthy male subjects (age 18–45 years) without a history of physical or mental illnesses or sleep abnormalities. Two panels received alternating single ascending oral doses of MK-1064 in up to 5 treatment periods (Panel A: 5, 25, 100 and 200 mg [fasting conditions], 25 mg [fed condition], or matching placebo; Panel B: 10, 50, 150 and 250 mg [all daytime administration], 50 mg [evening administration], or matching placebo). Within each period, subjects were randomized to active treatment (N = 6) and placebo (N = 2) groups. There was a minimum of 3 days between ascending doses occurring between alternating subject panels to enable safety data review; treatments within subject panels were separated by a minimum 7-day washout period. The safety and tolerability of MK-1064 were monitored throughout the study by repeated evaluations of AEs, clinical assessments (semi-recumbent and orthostatic vital signs measurements, 12-lead electrocardiograms (ECGs), physical examinations, neurologic examinations), and safety laboratory tests (chemistry, hematology, urinalysis).
# During each treatment period, blood was collected for PK analysis pre-dose and at time points up to 72 hours post-dose. MK-1064 plasma concentrations were determined by reverse phase high-performance liquid chromatography and detected with tandem mass spectrometry. The lower limit of quantitation was 1 ng/mL and the linear calibration range was 1–1000 ng/mL. PK parameters were calculated with WinNonLin 5.2.1. Values below the assay limit of quantification were indicated with a zero value. PD effects on arousal and mood were assessed by the Karolinska Sleepiness Scale (KSS)[45] and Bond and Lader Visual Analogue Scale (VAS)[46] in exploratory endpoints.
# [4] = set-up: method as in PMID 24376006; conditions: dogs ref 29; cited from earlier work
smiles,measurement,setting,value
"COc1ccc(CNC(=O)c2cc(-c3cncc(Cl)c3)cnc2-c2ccccn2)nc1OC [MK-1064, 5″-chloro-N-[(5,6-dimethoxypyridin-2-yl)methyl]-2,2′:5′, 3″-terpyridine-3′-carbo xamide]","sleep stage changes, late active phase administration","sleep/wake stages [1]; ZT 23:00, 1 hour prior to inactive period, 20 mg/kg oral",only SWS reached significance
same,active wake during the 2 hours following administration,"sleep/wake stages [1]; mid-active phase (ZT 17:00), 5, 10 and 20 mg/kg oral, 20 mg/kg significant p < 0.05",dose dependently attenuated active wake
same,SWS during the 2 hours following administration,"sleep/wake stages [1]; mid-active phase, 20 mg/kg oral",increases in SWS
same,REM sleep during the 2 hours following administration,"sleep/wake stages [1]; mid-active phase, 10 and 20 mg/kg oral",increases in REM sleep
same,"active wake (with increases in NREM I, NREM II and REM sleep)","sleep/wake stages [2]; 1 mg/kg oral, 1 hour following administration vs vehicle",Significant active wake reductions
same,REM sleep in the hour following administration,"sleep/wake stages [2]; 20 mg/kg oral, vs vehicle, increased at several later time points",not significantly increased
same,cataplectic episodes in FECT,cataplexy,no cataplectic episodes; also recorded: cataplexy was not observed
same,mean time to complete the FECT,cataplexy; not significantly different from vehicle,37.8 s
same,fraction unbound,Dog plasma free fraction,0.286
same,Cmax,[3],0.37 to 8.28 µM
same,Tmax,[3]; read-out: median time of peak concentrations (Tmax),1 to 2 h
same,half-life,[3]; read-out: alpha phase half-life,1.6 to 4 h
same,half-life,[3]; read-out: mean apparent terminal half-life,6.8 to 11.1 h
same,minimum plasma concentration needed for sleep-promoting efficacy,[4],0.028 µM
